The NIST ThermoML archive (doi:10.1021/je201211f)

Assays:
[1] = 298.15 K, 101.33 kPa, Liquid; for viscosity: Capillary tube (Ostwald / Ubbelohde) method; for mass density: Vibrating tube method
[2] = refractive index (Na D-line) (dimensionless); conditions: 298.15 K; 101.33 kPa; Liquid; Standard Abbe refractometry
[3] = refractive index (Na D-line) (dimensionless); xn = mol fraction of the nth substance listed; conditions: 298.15 K, 101 kPa, Liquid
[4] = xn = mol fraction of the nth substance listed; conditions: 101 kPa, Liquid; for mass density: Vibrating tube method; for viscosity: Capillary tube (Ostwald / Ubbelohde) method

Cc1ccccc1C [1,2-dimethylbenzene]
Conditions	mass density [kg/m3]	refractive index	viscosity [mPa·s]
[1]	875.57	–	0.757
[2]	–	1.5024	–

Cc1cccc(C)c1 [1,3-dimethylbenzene]
Conditions	mass density [kg/m3]	refractive index	viscosity [mPa·s]
[1]	859.88	–	0.589
[2]	–	1.4944	–

Cc1ccc(C)cc1 [1,4-dimethylbenzene]
Conditions	mass density [kg/m3]	refractive index	viscosity [mPa·s]
[1]	856.68	–	0.609
[2]	–	1.4929	–

CC(=O)O [acetic acid]
Conditions	mass density [kg/m3]	refractive index	viscosity [mPa·s]
[1]	1043.58	–	1.127
[2]	–	1.3698	–

ClC=C(Cl)Cl [trichloroethene]
Conditions	mass density [kg/m3]	refractive index	viscosity [mPa·s]
[1]	1455.53	–	0.582
[2]	–	1.475	–

ClC=C(Cl)Cl [trichloroethene] + Cc1ccccc1C
[3]
Conditions	refractive index
x1 = 0.0721	1.501
x1 = 0.1615	1.499
x1 = 0.2437	1.4973
x1 = 0.3075	1.4958
x1 = 0.3957	1.4936
x1 = 0.4824	1.4917
x1 = 0.5643	1.4896
x1 = 0.6346	1.4875
x1 = 0.7158	1.4847
x1 = 0.806	1.4813
x1 = 0.8818	1.4788
x1 = 0.9637	1.4762

[4]
Conditions	mass density, 293.15 K [kg/m3]	mass density, 298.15 K [kg/m3]	mass density, 303.15 K [kg/m3]	viscosity, 298.15 K [mPa·s]
x1 = 0.0721	–	–	–	0.7421
x1 = 0.088	919.03	914.58	910.12	–
x1 = 0.1511	948.33	943.7	939.06	–
x1 = 0.1615	–	–	–	0.725
x1 = 0.2426	992.67	987.75	982.82	–
x1 = 0.2437	–	–	–	0.7095
x1 = 0.3181	–	–	–	0.6959
x1 = 0.3249	1034.35	1029.15	1023.95	–
x1 = 0.3895	1068.4	1062.98	1057.54	–
x1 = 0.3957	–	–	–	0.6808
x1 = 0.4775	1116.88	1111.15	1105.38	–
x1 = 0.4824	–	–	–	0.6644
x1 = 0.5495	1158.43	1152.41	1146.34	–
x1 = 0.558	–	–	–	0.6498
x1 = 0.6346	–	–	–	0.6363
x1 = 0.6384	1212.22	1205.79	1199.32	–
x1 = 0.7132	1259.66	1252.89	1246.08	–
x1 = 0.7158	–	–	–	0.6224
x1 = 0.79	1310.86	1303.68	1296.47	–
x1 = 0.802	–	–	–	0.6081
x1 = 0.8776	1372.25	1364.6	1356.92	–
x1 = 0.8818	–	–	–	0.595
x1 = 0.9559	–	–	–	0.5836
x1 = 0.9583	1431.95	1423.79	1415.62	–
